Patent US20170298100A1, “ANTI-VIRAL PEPTIDES” (Cascadia Life Sciences LLC, priority 2014, published 2017)
Like-named read-outs stand apart in the source and are kept apart here.

What was measured:
[1] = test system: influenza H3N2/Wisconsin/67/2005; assay: plaque assay of influenza H3N2 replication in MDCK cells; format: cell-based, influenza virus; details: 10 μM, control drug
MDCK canine kidney cells = details: for effect on monolayer: compared to cell control wells
[2] = test system: herpes simplex virus type 1 strain KOS; assay: plaque inhibition assay of HSV1 strain KOS replication in Vero cells; format: cell-based; details: for inhibition of plaque number: compared to media-only treated controls
[3] = test system: Vero African green monkey kidney cells

## CCOC(=O)C1=C[C@@H](OC(CC)CC)[C@H](NC(C)=O)[C@@H](N)C1 [Oseltamivir]
[1]
  inhibition of H3N2 plaques: completely inhibitory

## Ac-GDTVGLIDEQNEASKTNGLGAAEAF-NH2 [CLS2G]
MDCK canine kidney cells; 74.0 μM (second concentration)
  cytotoxicity: no cytotoxicity
MDCK canine kidney cells; 235 μM (highest concentration)
  effect on monolayer: moderate thinning and more intense staining of the monolayer

## Nc1nc2c(ncn2COCCO)c(=O)[nH]1 [acyclovir, reference compound]
[2]; 5 μM acyclovir control
  plaque size relative to plaques with 56 μM CLS1N (approx. 0.7 mm): approximately the same size

## Ac-ADVDVSAVQAKLGALELNQRDAAAETELRV-NH2 [CLS2A]
MDCK canine kidney cells; 59.4 μM (second concentration)
  cytotoxicity: no cytotoxicity
MDCK canine kidney cells; 188 μM (highest concentration)
  effect on monolayer: moderate thinning and more intense staining of the monolayer

## Ac-RQYSVTDALEDVSTSPQSTEEVVQSFLISQ-NH2 [CLS1S]
[3]; 188 ug/ml dilution
  density of the monolayer: did not affect the density of the monolayer
[3]; highest concentration, compared to control untreated cells
  effect on monolayer: moderate thinning

## RQYSVTDALEDVNTSPQSTEEVVQSFLISQ (Artificial anti-viral peptides) [CLS1N]
[2]; 5.6 μM (dilution 4)
  plaque size: wild type size
  inhibition of plaque number: not significant inhibition of plaque number
[2]; 17.6 μM (dilution 3)
  plaque size: wild type size
  inhibition of plaque number: not significant inhibition of plaque number
[2]; 56 μM, untreated plaques approx. 1.5 mm
  plaque size (diameter): approx. 0.7 mm
[2]; 177 μM
  plaque number: reduced in number
[2]; plaque inhibition assay, Vero cells
  inhibition of virus growth in cells: effectively inhibited virus growth
[3]; 5.6 μM (dilution 4)
  monolayer appearance: normal microscopically
[3]; 17.6 μM (dilution 3)
  monolayer appearance: normal microscopically
[3]; 56 μM
  cytotoxicity grade (density of the monolayer): no cytotoxicity
[3]; 177 μM, compared to cell control wells
  effect on monolayer: moderate thinning and moderately less intense staining of the monolayer
